The results in this text go back to US20210292320A1, “FUNCTIONALIZED HETEROCYCLIC COMPOUNDS AS ANTIVIRAL AGENTS” (Enanta Pharmaceuticals, Inc., priority 2020, published 2021).

A value given as a limit tells only on which side of the number the result lay.

For data set [1], the system named is HBV viral product accumulation in 2.2.15 cells. In words: HBV antiviral activity in 2.2.15 cells (qPCR of cell lysates or HBsAg/HBeAg ELISA of supernatants, day 5). In kind it is cell-based. Conditions: Hepatitis B virus, 120 h, 5 days treatment, 0.5% DMSO, 50% reduction of viral product accumulation relative to no drug controls, irrespective of readout. As for the experimental part: 2.2.15 cells are passaged upon attaining confluency in DMEM/F12 media in the presence of 10% FBS, Penn/Strep, and 250 ug/mL G418. Novel compounds are 5 fold serially diluted in DMSO and added to 96 well plates containing 35,000 cells/well at a 1:200 dilution so that the final concentration of DMSO is 0.5%. On day 5, post treatment cell lysates and supernatants are harvested for analysis.
Cells are lysed using Agilent Sidestep Lysis buffer, diluted 1:100 and quantified via quantitative real time PCR. Commercially available ELISA kits are used to quantitate the viral proteins HBsAg (Alpco) or HBeAg (US Biological) by following the manufacturer's recommended protocol after diluting samples to match the linear range of their respective assays. Irrespective of readout, compound concentrations that reduce viral product accumulation in the cell lysates or supernatants by 50% relative to no drug controls (EC50) are reported; EC50 ranges are as follows: A<0.1 μM; B 0.2-1 μM; C>1 μM.
On the technique in general: Quantitative PCR measures a nucleic acid by following its amplification.

The nature of data set [2]: Compound induced cellular toxicity in HepG2 cells (ATPlite 1Step, total ATP levels, day 3). In kind it is cell-based. Conditions: human, three days, 0.5% DMSO, 50% reduction of total ATP levels relative to no drug controls. How it is done: At day 3, post seeding cells are treated with ATPlite 1Step according to the manufacturer's instructions.

The EC50 is the concentration that produces a half-maximal response. Higher therefore signals weaker potency. Regarding `CC(C)(C)[C@@H]1Cn2nc(-c3ccc(F)cc3)cc2-c2cc(O)c(C(=O)O)cc21` [Example 1, (S)-6-(tert-butyl)-2-(4-fluorophenyl)-9-hydroxy-5,6-dihydropyrazolo[5,1-a]isoquinoline-8-carboxylic acid], the half-maximal effective concentration (EC50) in data set [1] was more than 1 µM.
`CC(C)(C)[C@@H]1Cn2nc(-c3ccccc3)cc2-c2cc(O)c(C(=O)O)cc21` [Example 2, (S)-6-(tert-butyl)-9-hydroxy-2-phenyl-5,6-dihydropyrazolo[5,1-a]isoquinoline-8-carboxylic acid]: the EC50 in data set [1] was more than 1 µM.
In the case of `CC(C)(C)[C@@H]1Cn2nc(-c3ccccc3F)cc2-c2cc(O)c(C(=O)O)cc21` [Example 3, (S)-6-(tert-butyl)-2-(2-fluorophenyl)-9-hydroxy-5,6-dihydropyrazolo[5,1-a]isoquinoline-8-carboxylic acid], the EC50 in data set [1] is more than 1 µM.
For `CC(C)(C)[C@@H]1Cn2nc(-c3cccc(F)c3)cc2-c2cc(O)c(C(=O)O)cc21` [Example 4, (S)-6-(tert-butyl)-2-(3-fluorophenyl)-9-hydroxy-5,6-dihydropyrazolo[5,1-a]isoquinoline-8-carboxylic acid], the 50% effective concentration (EC50) in data set [1] was more than 1 µM.
Turning to `CC(C)(C)[C@@H]1Cn2nc(-c3cccc(F)c3)c(-c3cccc(F)c3)c2-c2cc(O)c(C(=O)O)cc21` [Example 5, (S)-6-(tert-butyl)-1,2-bis(3-fluorophenyl)-9-hydroxy-5,6-dihydropyrazolo[5,1-a]isoquinoline-8-carboxylic acid], in data set [1], the half-maximal effective concentration (EC50) was more than 1 µM.
In general, CC50 refers to the concentration at which the toxic effect on the cells reaches its halfway point. `CC(C)(C)[C@@H]1Cn2nc(-c3ccc(F)cc3)c(-c3ccc(F)cc3)c2-c2cc(O)c(C(=O)O)cc21` [Example 6, (S)-6-(tert-butyl)-1,2-bis(4-fluorophenyl)-9-hydroxy-5,6-dihydropyrazolo[5,1-a]isoquinoline-8-carboxylic acid] gave a 50% effective concentration (EC50) in data set [1] of less than 0.1 µM. For the same molecule, in data set [2], the cytotoxic concentration (CC50) at 3 days was more than 25 µM.
In turn, `CC(C)(C)[C@@H]1Cn2nc(-c3ccccc3F)c(-c3ccccc3F)c2-c2cc(O)c(C(=O)O)cc21` [Example 7, (S)-6-(tert-butyl)-1,2-bis(2-fluorophenyl)-9-hydroxy-5,6-dihydropyrazolo[5,1-a]isoquinoline-8-carboxylic acid] showed an EC50 in data set [1] of less than 0.1 µM. This molecule also registered a CC50 at 3 days in data set [2] of more than 25 µM.
The corresponding values for `CC(C)(C)[C@@H]1Cn2nc(-c3ccccc3)c(-c3ccccc3)c2-c2cc(O)c(C(=O)O)cc21` [Example 8, (S)-6-(tert-butyl)-9-hydroxy-1,2-diphenyl-5,6-dihydropyrazolo[5,1-a]isoquinoline-8-carboxylic acid] are less than 0.1 µM and more than 25 µM.
`CC(C)(C)[C@@H]1Cn2nc(-c3ccoc3)c(-c3ccoc3)c2-c2cc(O)c(C(=O)O)cc21` [Example 9, (S)-6-(tert-butyl)-1,2-di(furan-3-yl)-9-hydroxy-5,6-dihydropyrazolo[5,1-a]isoquinoline-8-carboxylic acid] gave a concentration for a half-maximal effect (EC50) in data set [1] of more than 1 µM.
